Data: patent publication US9675074B2, “Methods to reduce cold damage in cereals” (Valent BioSciences Corporation, priority 2014, dated 2017)

What was measured:
Corn [1] = experiment: Greenhouse corn, foliar GA3 before a simulated freeze event (−2° C. for 8 hours), evaluated 8 days after freezing; type: in vivo
Method: Corn seeds were planted in 18 cell flats filled with Sunshine 900 mix. Osmocote Plus (cal mag) 16-8-12 and Gypsum ([…]) were added (standard medium). The plants were watered and fertilized with 100 ppm of a commercially available 15-5-15 mixture plus 100 ppm calcium and 100 ppm magnesium, pH 6.5, as necessary and grown in the greenhouse. After the corn grew for 7 days, the plants received a foliar application of 1.8 ml of 120 mg/liter GA3 plus 0.05% non-ionic surfactant per plant. Sixteen hours later, the GA3-treated and untreated control plants were moved to a cold room with temperature at −2° C. for 8 hours to simulate a freeze event. Plants were then moved to the greenhouse (25° C.). The plant height, number of injured leaves, and damaged leaf area were evaluated at 8 days after freezing.

Corn [2] = experiment: Corn growth at 8° C. for 7 d after foliar GA3 application at V2; type: in vivo; details: 120 mg/liter (0.2 mg/plant: 6.9 grams of GA3/acre)
Method: Corn seeds were planted in 2 quart pots filled with standard medium and grown in the greenhouse. After the corn grew for 10 days at 24° C., it was at the V2 growth stage. The 10d post-sowing plants received a foliar application of 1.8 ml of 120 mg/liter GA3 plus 0.05% of a non-ionic surfactant. Immediately after spraying, both the GA3-treated and untreated control plants were moved to a growth chamber set at 8° C. with a 12:12 photoperiod. The height of the plants was measured one week after treatment.

[3] = 120 mg/liter GA3, 1.8 ml per plant, 16 h before −2° C. for 8 h, 8 days after freezing
[4] = pre-frost GA3 treatment, 120 mg/liter

With C=C1C[C@]23C[C@@]1(O)CC[C@H]2[C@@]12C=C[C@H](O)[C@@](C)(C(=O)O1)[C@H]2[C@@H]3C(=O)O [GA3, gibberellic acid] the Damaged leaf area (Corn [1]; [3]) was 12.4%, the “Number of injured leaf” value (Corn [1]; [3]) was 2.6 and the Plant height (Corn [1]; [3]) was 59.7 cm. The “Effect on number of injured leaves or damaged leaf area” value (Corn [1]; [4]) was “did not reduce the number of injured leaves or damaged leaf area”, the “Recovery from frost damage” value (Corn [1]; [4]) was “did help the corn recover from the frost damage” and the Growth rate (Corn [2]; 7 d at 8° C.) was 0.58 cm/day. The “Height at 7 d” value (Corn [2]; 7 d at 8° C., 12:12 photoperiod) was 28.0 cm and the “Height at Application” value (Corn [2]; baseline at application, V2) was 23.9 cm.
